The record followed here is patent US20200352931A1, “OXALAMIDES AS MODULATORS OF INDOLEAMINE 2,3-DIOXYGENASE” (PHENEX DISCOVERY VERWALTUNGS-GMBH, priority 2017, published 2020).

pIC50: −log10 of the molar value. Where only a bound is given, the exact number is not on record here.

The target of the assay is T1, Indoleamine 2,3-Dioxygenase (IDO1) in SKOV-3 cells (Homo sapiens, UniProt P14902).
T1 construct: endogenous in cells; host or cells: SKOV-3 (ATCC HTB-77), stimulated with 50 ng/ml interferon gamma
T1 sequence (P14902 whole entry): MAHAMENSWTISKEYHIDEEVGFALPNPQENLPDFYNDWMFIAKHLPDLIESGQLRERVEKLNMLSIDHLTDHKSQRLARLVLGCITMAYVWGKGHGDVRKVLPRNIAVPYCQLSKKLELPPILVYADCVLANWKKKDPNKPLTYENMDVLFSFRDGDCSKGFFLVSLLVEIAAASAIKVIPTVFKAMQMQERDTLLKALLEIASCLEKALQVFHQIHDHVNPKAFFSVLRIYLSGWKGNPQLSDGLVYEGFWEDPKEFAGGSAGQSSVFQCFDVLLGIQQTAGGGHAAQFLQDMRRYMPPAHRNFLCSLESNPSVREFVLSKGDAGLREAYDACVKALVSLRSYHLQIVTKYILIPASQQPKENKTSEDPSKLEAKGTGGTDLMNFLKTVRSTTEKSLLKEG
In words: SKOV-3 cellular indoleamine 2,3-dioxygenase assay. The conditions noted are these: 50 ng/ml Interferon gamma, 100 μM L-Tryptophan, 24 hours, N-Formylkynurenin fluorescence, read-out: cell based activity (IC50). The method, then:
SKOV-3 Cellular Indoleamine 2,3-Dioxygenase Assay
SKOV-3 cells were obtained from the American Type Culture Collection (ATCC® HTB-77™) and maintained in McCoy's medium (Pan Biotech) supplemented with 10% fetal bovine serum and 1% Penicilin/Streptomycin. Cells were kept at 37° C. in a humidified incubator with 5% CO2. For assay preparation, cells were seeded at a density of 2*10^5/m into black clear bottom 96 well plates in 100 μl medium/well supplemented with 50 ng/ml Interferon gamma (eBioscience, Thermo Fisher Scientific). After cells fully adhered to the plate, dilution series of compounds were added in medium containing additional L-Tryptophan to a final L-Tryptophan concentration of 100 μM. The cells were incubated for 24 hours. Detection of produced N-Formylkynurenin was performed by addition of 3-Methylpiperidine to a final concentration of 200 mM. The plates were sealed and heated to 65° C. for 20 minutes in a water bath. After cooling the fluorescence of each well was recorded with a Victor™ X4 (PerkinElmer) plate reader at an emission wavelength of 535 nm and excitation at 405 nm (Tomek et al.; Anal Bioanal Chem (2013) 405:2515-2524., Tomek et al.; Biochim Biophys Acta. 2015 September; 1850(9):1772-80).
As to `O=C(NCc1ccc(Cl)cc1)C(=O)N1CCC(c2ccnc3ccc(F)cc23)CC1` [2/1], the negative-log IC50 (pIC50) (usually the IC50 on a negative log10 scale, so that one unit is a factor of ten) was less than 6.00.
Next, `O=C(NCc1ccc(Cl)o1)C(=O)N1CCC(c2ccnc3ccc(F)cc23)CC1` [2/2]: less than 6.00; `CN(C(=O)C(=O)N1CCC(c2ccnc3ccc(F)cc23)CC1)c1ccc(Cl)cn1` [2/3]: less than 6.00; `O=C(Nc1ccc(Cl)cn1)C(=O)N1CCC(c2ccnc(C(F)(F)F)c2Cl)CC1` [2/4]: 6.00 to 7.00.
Next, `O=C(Nc1ccc(Cl)cn1)C(=O)N1CCC(c2cccc(Cl)c2Cl)CC1` [2/5]: 6.00 to 7.00; `N#Cc1ccc(C2CCN(C(=O)C(=O)Nc3ccc(Cl)cn3)CC2)c2ccccc12` [2/6]: 6.00 to 7.00.
Next, `O=C(N[C@@H]1CCc2ccccc2C1)C(=O)N1CCC(c2ccnc3ccc(F)cc23)CC1` [5/1]: less than 6.00; `O=C(Nc1ccc(C(F)(F)F)cn1)C(=O)N1CCC(c2ccnc3ccc(F)cc23)CC1` [5/2]: 6.00 to 7.00.
In the case of `Cc1nc(NC(=O)C(=O)N2CCC(c3ccnc4ccc(F)cc34)CC2)ccc1Cl` [5/3], the negative-log IC50 (pIC50) is 6.00 to 7.00.
Next, `O=C(Nc1ccc(-c2cnccn2)cn1)C(=O)N1CCC(c2ccnc3ccc(F)cc23)CC1` [5/4]: 6.00 to 7.00.
Next, `O=C(Nc1ccc(-c2cncnc2)cn1)C(=O)N1CCC(c2ccnc3ccc(F)cc23)CC1` [5/5]: less than 6.00; `Cc1nc(NC(=O)C(=O)N2CCC(c3ccnc4ccc(F)cc34)CC2)ccc1-c1cnn(C)c1` [5/6]: less than 6.00.
With `O=C(NC1Cc2ccccc2C1)C(=O)N1CCC(c2ccnc3ccc(F)cc23)CC1` [5/7], the pIC50 was 6.00 to 7.00.
Next, `NS(=O)(=O)c1ccc(NC(=O)C(=O)N2CCC(c3ccnc4ccc(F)cc34)CC2)cc1` [5/8]: less than 6.00; `NC(=O)c1ccc(NC(=O)C(=O)N2CCC(c3ccnc4ccc(F)cc34)CC2)cc1` [5/9]: less than 6.00.
In the case of `CS(=O)(=O)c1ccc(NC(=O)C(=O)N2CCC(c3ccnc4ccc(F)cc34)CC2)cc1` [5/10] it was less than 6.00; in that of `O=C(Nc1ccc(C(F)(F)F)cn1)C(=O)N1CCC(c2ccccc2Cc2ccccc2)CC1` [6/1], less than 6.00.
In the case of `O=C(Nc1ccc(C(F)(F)F)cn1)C(=O)N1CCC(c2ccncc2-c2ccccc2)CC1` [6/2] it was less than 6.00; in that of `O=C(Nc1ccc(C(F)(F)F)cc1)C(=O)N1CCC(c2ccnc3ccc(F)cc23)CC1` [7/1], more than 7.00.
For `O=C(Nc1csc(Cl)c1)C(=O)N1CCC(c2ccnc3ccc(F)cc23)CC1` [7/2], the pIC50 was more than 7.00.
In the case of `O=C(N[C@@H]1CCc2ccccc21)C(=O)N1CCC(c2ccnc3ccc(F)cc23)CC1` [8/1] it was less than 6.00; in that of `O=C(N[C@H]1CCc2ccccc21)C(=O)N1CCC(c2ccnc3ccc(F)cc23)CC1` [8/2], less than 6.00; in that of `O=C(NC1CCC(F)(F)CC1)C(=O)N1CCC(c2ccnc3ccc(F)cc23)CC1` [8/3], less than 6.00.
With `O=C(NCC1CC1)C(=O)N1CCC(c2ccnc3ccc(F)cc23)CC1` [8/4], the pIC50 is less than 6.00.
Regarding `O=C(NC1CCC2(CC1)CC2)C(=O)N1CCC(c2ccnc3ccc(F)cc23)CC1` [8/5], the negative logarithm of the IC50 (pIC50) was less than 6.00.
In the case of `O=C(NC1CCC(C(F)(F)F)CC1)C(=O)N1CCC(c2ccnc3ccc(F)cc23)CC1` (stereo not drawn) [8/6] it was less than 6.00; in that of `O=C(Nc1ccc(Cl)cn1)C(=O)N1CCC2(CC1)OCc1ccccc12` [100/1], 6.00 to 7.00; in that of `O=C(Nc1ccc(Cl)cn1)C(=O)N1CCC2(CC1)COc1ccccc12` [100/2], 6.00 to 7.00.
With `CN1C(=O)C2(CCN(C(=O)C(=O)Nc3ccc(Cl)cn3)CC2)c2ccccc21` [100/4], the negative-log IC50 (pIC50) was less than 6.00.
Next, `O=C(Nc1ccc(Cl)cn1)C(=O)N1CCC2(CC1)OCc1ccncc12` [100/5]: less than 6.00; `O=C(Nc1ccc(Cl)cn1)C(=O)N1CCC2(CC1)NC(=O)c1ccccc12` [100/6]: less than 6.00.
As to `CN1C(=O)c2ccccc2C12CCN(C(=O)C(=O)Nc1ccc(Cl)cn1)CC2` [100/7], the pIC50 was less than 6.00.
Next, `O=C(Nc1ccc(Cl)cn1)C(=O)N1CCC2(CC1)OCc1cc(Cl)ccc12` [100/8]: 6.00 to 7.00; `O=C(Nc1ccc(Cl)cc1)C(=O)N1CCC2(CC1)OCc1cc(Cl)ccc12` [100/9]: more than 7.00; `O=C(Nc1ccc(Cl)cn1)C(=O)N1CCC2(CC1)OCc1cc(C(F)(F)F)ccc12` [100/11]: more than 7.00.
On to `O=C(Nc1ccc(Cl)cc1)C(=O)N1CCC2(CC1)OCc1cc(C(F)(F)F)ccc12` [100/12], for which the pIC50 was more than 7.00.
Next, `O=C(Nc1ccc(Cl)cc1)C(=O)N1CCC2(CC1)OCc1cc(C(F)(F)F)c(F)cc12` [100/13]: more than 7.00.
In the case of `N#Cc1ccc2c(c1)COC21CCN(C(=O)C(=O)Nc2ccc(Cl)cc2)CC1` [100/14] it was 6.00 to 7.00.
`O=C(Nc1ccc(Cl)cn1)C(=O)N1CCC2(CC1)OCc1ccc(Cl)cc12` [100/15]: the negative-log IC50 (pIC50) was less than 6.00.
Turning to `O=C(Nc1ccc(Cl)cn1)C(=O)N1CCC(c2ccnc3ccc(F)cc23)CC1` [Example 2, N-(5-Chloropyridin-2-yl)-2-(4-(6-fluoroquinolin-4-yl)piperidin-1-yl)-2-oxoacetamide], the pIC50 was more than 7.00.
Consider `O=C(Nc1ccc(Cl)cn1)C(=O)N1CCC(c2ccnc3ccccc23)CC1` [Example 3, N-(5-Chloropyridin-2-yl)-2-oxo-2-(4-(quinolin-4-yl)piperidin-1-yl)acetamide], for which the pIC50 was more than 7.00.
Next, `C[C@H]1CC[C@H](NC(=O)C(=O)N2CCC(c3ccnc4ccccc34)CC2)CC1` [Example 4, N-((1r,4r)-4-Methylcyclohexyl)-2-oxo-2-(4-(quinolin-4-yl)piperidin-1-yl)acetamide]: 6.00 to 7.00; `O=C(N[C@H]1CCc2ccccc2C1)C(=O)N1CCC(c2ccnc3ccc(F)cc23)CC1` [Example 5, (S)-2-(4-(6-Fluoroquinolin-4-yl)piperidin-1-yl)-2-oxo-N-(1,2,3,4-tetrahydro-naphthalen-2-yl)acetamide]: 6.00 to 7.00.
Next, `O=C(Nc1ccc(Cl)cn1)C(=O)N1CCC(c2cccc3ccccc23)CC1` [Example 6, N-(5-Chloropyridin-2-yl)-2-(4-(naphthalen-1-yl)piperidin-1-yl)-2-oxoacetamide]: 6.00 to 7.00; `O=C(Nc1ccc(CCCl)cc1)C(=O)N1CCC(c2ccnc3ccc(F)cc23)CC1` [Example 7, N-(4-(2-Chloroethyl)phenyl)-2-(4-(6-fluoroquinolin-4-yl)piperidin-1-yl)-2-oxoacetamide]: more than 7.00.
As for `CC(NC(=O)C(=O)N1CCC(c2ccnc3ccc(F)cc23)CC1)c1ccccc1` (stereo not drawn) [Example 8, 2-(4-(6-Fluoroquinolin-4-yl)piperidin-1-yl)-2-oxo-N-(1-phenylethyl)acetamide], the pIC50 is less than 6.00.
Next, `O=C(Nc1ccc(Cl)cn1)C(=O)N1CCC(c2ccc(C(=O)O)c3ccccc23)CC1` [Example 9, 4-(1-(2-((5-Chloropyridin-2-yl)amino)-2-oxoacetyl)piperidin-4-yl)-1-naphthoic Acid]: less than 6.00.
Next, `O=C(Nc1ccc(Cl)cn1)C(=O)N1CCC2(CCc3ccccc32)CC1` [Example 100]: more than 7.00.
In the case of `O=C(Nc1ccc(Cl)cc1)C(=O)N1CCC2(CC1)COc1cc(C(F)F)ccc12` [Example 101, N-(4-Chlorophenyl)-2-(6-(difluoromethyl)-2H-spiro[benzofuran-3,4′-piperidin]-1′-yl)-2-oxoacetamide] it was more than 7.00; in that of `O=C(Nc1ccc(Cl)cc1)C(=O)N1CCCC2(CC1)COc1cc(C(F)(F)F)ccc12` (stereo not drawn) [Example 102, N-(4-Chlorophenyl)-2-oxo-2-(6′-(trifluoromethyl)-2′H-spiro[azepane-4,3′-benzofuran]-1-yl)acetamide], 6.00 to 7.00; in that of `O=C(NC1Cc2ccc(F)cc21)C(=O)N1CCC2(CC1)COc1cc(C(F)(F)F)ccc12` (stereo not drawn) [Example 103, N-(4-Fluorobicyclo[4.2.0]octa-1(6),2,4-trien-7-yl)-2-oxo-2-(6-(trifluoromethyl)-2H-spiro[benzofuran-3,4′-piperidin]-1′-yl)acetamide], less than 6.00.
